The target of assay [1] is human CSNK1A1 (Homo sapiens (Human), UniProt P48729). In words: CSNK1A1 Assay 2 (ADP-Glo, 1 μM ATP). Type of assay: biochemical. The settings on record: median, Table 2, read-out: CSNK1A1 Assay 2 IC50 [mol/l] (median). On the procedure:
CSNK1A1-inhibitory activity of compounds of the present invention in presence of 1 μM adenosine-tri-phosphate (ATP) was quantified employing the CSNK1A1 assay as described in the following paragraphs. In essence, the enzyme activity is measured by quantification of the adenosine-di-phosphate (ADP), which is generated as a co-product of the enzyme reaction, via the “ADP-Glo™ Kinase Assay” kit from the company Promega. This detection system works as follows: In a first step the ATP not consumed in the kinase reaction is quantitatively converted to cAMP employing an adenylate cyclase (“ADP-Glo-reagent”), then the adenylate cyclase is stopped and the ADP generated in the kinase reaction converted to ATP which generates in a luciferase-based reaction a glow-luminescence signal (“Kinase Detection Reagent”).
Recombinant fusion protein of N-terminal Glutathion-S-Transferase (GST) and full-length human CSNK1A1, expressed by baculovirus infected insect cells and purified via Glutathion affinity chromatography, was purchased from Life Technologies (product no. PV4174) and used as enzyme. As substrate for the kinase reaction the biotinylated peptide biotin-Ahx-KRRRAL-pS-VASLPGL (C-terminus in amide form) was used which can be purchased e.g. from the company Biosyntan (Berlin-Buch, Germany).
For the assay 50 nl of a 100 fold concentrated solution of the test compound in DMSO was pipetted into a white 1536-well microtiter plate (Greiner Bio-One, Frickenhausen, Germany), 2 μL of a solution of CSNK1A1 in aqueous assay buffer [50 mM HEPES pH 7.5, 10% (v/v) glycerol, 10 mM MgCl2, 50 mM NaCl, 1 mM dithiothreitol, 0.01% (w/v) bovine serum albumin, 0.01% (v/v) Triton X-100] were added and the mixture was incubated for 15 min at 22° C. to allow pre-binding of the test compounds to the enzyme before the start of the kinase reaction. Then the kinase reaction was started by the addition of 3 μL of a solution of ATP (1.67 μM=>final conc. in the 5 μL assay volume is 1 μM) and peptide substrate (50 μM=>final conc. in the 5 μL assay volume is 30 μM) in assay buffer and the resulting mixture was incubated for a reaction time of 30 min at 22° C. The concentration of CSNK1A1 was adjusted depending of the activity of the enzyme lot and was chosen appropriate to have the assay in the linear range, a typical concentrations are about 0.0375 ng/μL. The reaction was stopped by the addition of 2.5 μL of “ADP-Glo-reagent” (1:1.5 fold diluted with water) and the resulting mixture was incubated at 22° C. for 1 h to convert the ATP not consumed in the kinase reaction completely […]. Subsequently 2.5 μL of the “kinase detection reagent” (1.2 fold more concentrated than recommended by the producer) were added, the resulting mixture was incubated at 22° C. for 1 h and then the luminescence measured with a suitable measurement instrument (e.g. Viewlux™ from Perkin-Elmer). The amount of emitted light was taken as a measure for the amount of ADP generated and thereby for the activity of the CSNK1A1.
(§1) The data were normalised (enzyme reaction without inhibitor=0% inhibition, all other assay components but no enzyme=100% inhibition).

In assay [2] the target is human CSNK1D (Homo sapiens (Human), UniProt P48730). In words: CSNK1D assay (ADP-Glo, 1 μM ATP). Format: biochemical. The conditions noted are these: median, Table 2, read-out: CSNK1D IC50 [mol/l] (median). On the procedure: CSNK1D-inhibitory activity of compounds of the present invention in presence of 1 μM adenosine-tri-phosphate (ATP) was quantified employing the CSNK1D assay as described in the following paragraphs. In essence, the enzyme activity is measured by quantification of the adenosine-di-phosphate (ADP), which is generated as a co-product of the enzyme reaction, via the “ADP-Glo™ Kinase Assay” kit from the company Promega. This detection system works as follows: In a first step the ATP not consumed in the kinase reaction is quantitatively converted to cAMP employing an adenylate cyclase (“ADP-Glo-reagent”), then the adenylate cyclase is stopped and the ADP generated in the kinase reaction converted to ATP which generates in a luciferase-based reaction a glow-luminescence signal (“Kinase Detection Reagent”).
Recombinant fusion protein of N-terminal Glutathion-S-Transferase (GST) and full-length human CSNK1D, expressed by baculovirus infected insect cells and purified via Glutathion affinity chromatography, was purchased from Life Technologies (product no. PV3665) and used as enzyme. As substrate for the kinase reaction the biotinylated peptide Btn-Ahx-SGSEGDSESGEEEG (C-terminus in amide form) was used which can be purchased e.g. from the company Biosyntan (Berlin-Buch, Germany).
For the assay 50 nl of a 100 fold concentrated solution of the test compound in DMSO was pipetted into a white 1536-well microtiter plate (Greiner Bio-One, Frickenhausen, Germany), 2 μL of a solution of CSNK1D in aqueous assay buffer [50 mM HEPES pH 7.5, 10% (v/v) glycerol, 10 mM MgCl2, 50 mM NaCl, 1 mM dithiothreitol, 0.01% (w/v) bovine serum albumin, 0.01% (v/v) Triton X-100] were added and the mixture was incubated for 15 min at 22° C. to allow pre-binding of the test compounds to the enzyme before the start of the kinase reaction. Then the kinase reaction was started by the addition of 3 μL of a solution of ATP (1.67 μM=>final conc. in the 5 μL assay volume is 1 μM) and peptide substrate (50 μM=>final conc. in the 5 μL assay volume is 30 μM) in assay buffer and the resulting mixture was incubated for a reaction time of 30 min at 22° C. The concentration of CSNK1D was adjusted depending of the activity of the enzyme lot and was chosen appropriate to have the assay in the linear range, a typical concentration is about 0.5 ng/μL. The reaction was stopped by the addition of 2.5 μL of “ADP-Glo-reagent” (1:1.5 fold diluted with water) and the resulting mixture was incubated at 22° C. for 1 h to convert the ATP not consumed in the kinase reaction completely […]. Subsequently 2.5 μL of the “kinase detection reagent” (1.2 fold more concentrated than recommended by the producer) were added, the resulting mixture was incubated at 22° C. for 1 h and then the luminescence measured with a suitable measurement instrument (e.g. Viewlux™ from Perkin-Elmer). The amount of emitted light was taken as a measure for the amount of ADP generated and thereby for the activity of the CSNK1D.
as §1

human CSNK1D, sequence (P48730 whole entry): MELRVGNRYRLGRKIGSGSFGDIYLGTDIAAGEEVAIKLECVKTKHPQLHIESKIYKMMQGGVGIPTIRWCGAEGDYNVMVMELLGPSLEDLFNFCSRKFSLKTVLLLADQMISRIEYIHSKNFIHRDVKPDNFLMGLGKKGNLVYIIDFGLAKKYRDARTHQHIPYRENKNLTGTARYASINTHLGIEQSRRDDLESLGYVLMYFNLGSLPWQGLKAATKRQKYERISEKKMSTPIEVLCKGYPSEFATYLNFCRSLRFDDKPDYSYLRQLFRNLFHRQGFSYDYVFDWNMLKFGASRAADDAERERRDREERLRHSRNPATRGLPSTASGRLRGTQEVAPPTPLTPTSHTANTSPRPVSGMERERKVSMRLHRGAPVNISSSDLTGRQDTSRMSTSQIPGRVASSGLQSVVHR
human CSNK1A1, sequence (P48729 whole entry): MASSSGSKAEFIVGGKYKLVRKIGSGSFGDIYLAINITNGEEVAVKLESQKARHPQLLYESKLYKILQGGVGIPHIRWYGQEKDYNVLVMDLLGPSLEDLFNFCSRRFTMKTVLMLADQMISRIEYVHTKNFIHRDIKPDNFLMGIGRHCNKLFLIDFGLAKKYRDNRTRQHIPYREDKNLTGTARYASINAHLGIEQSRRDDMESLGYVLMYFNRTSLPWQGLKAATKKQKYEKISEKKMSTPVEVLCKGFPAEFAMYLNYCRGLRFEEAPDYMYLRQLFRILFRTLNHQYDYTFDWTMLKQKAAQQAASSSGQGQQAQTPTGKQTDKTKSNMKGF

`CCC1CNC(=O)c2c1[nH]c(-c1ccnc(NC(=O)Cc3ccc(F)cc3)c1)c2Nc1ccccc1` (racemic) [Example 1, N-{4-[3-anilino-7-ethyl-4-oxo-4,5,6,7-tetrahydro-1H-pyrrolo[3,2-c]pyridin-2-yl]pyridin-2-yl}-2-(4-fluorophenyl)acetamide]: the IC50 came to 1.5 nM in assay [1] and 5.5 nM in assay [2].

For the molecule `CCc1c[nH]c(=O)c2c(Nc3ccccc3)c(-c3ccnc(NC(=O)C(CC(F)F)c4ccc(F)cc4)c3)[nH]c12` (racemic) [Example 5, N-[4-(3-anilino-7-ethyl-4-oxo-4,5-dihydro-1H-pyrrolo[3,2-c]pyridin-2-yl)pyridin-2-yl]-4,4-difluoro-2-(4-fluorophenyl)butanamide], the results for the IC50 in assay [1] and in assay [2] were 7.2 nM and 6.4 nM, respectively.

Turning to `CC1CN(C)C(=O)c2c1[nH]c(-c1ccnc(NC(=O)Cc3ccc(F)cc3)c1)c2Nc1ccccc1` (racemic) [Example 6, N-{4-[3-anilino-5,7-dimethyl-4-oxo-4,5,6,7-tetrahydro-1H-pyrrolo[3,2-c]pyridin-2-yl]pyridin-2-yl}-2-(4-fluorophenyl)acetamide], the results for the IC50 in assay [1] and in assay [2] were 2.6 nM and 6.5 nM, respectively.

In the case of `CC1CN(C)C(=O)c2c1[nH]c(-c1ccnc(NC(=O)C(C)c3ccc(F)cc3)c1)c2Nc1ccccc1` (racemic) [Example 9, N-{4-[(7RS)-3-anilino-5,7-dimethyl-4-oxo-4,5,6,7-tetrahydro-1H-pyrrolo[3,2-c]pyridin-2-yl]pyridin-2-yl}-2-(4-fluorophenyl)propanamide], the IC50 in assay [1] came out at 5.6 nM; in assay [2], 12 nM.

Take `Cc1cn(C)c(=O)c2c(Nc3ccccc3)c(-c3ccnc(NC(=O)C(CC(F)F)c4ccc(F)cc4)c3)[nH]c12` (racemic) [Example 11, N-[4-(3-anilino-5,7-dimethyl-4-oxo-4,5-dihydro-1H-pyrrolo[3,2-c]pyridin-2-yl)pyridin-2-yl]-4,4-difluoro-2-(4-fluorophenyl)butanamide]: the IC50 stood at 19 nM in assay [1] and 25 nM in assay [2].

In the case of `CN1CC(CC(F)(F)F)c2[nH]c(-c3ccnc(NC(=O)Cc4ccc(F)cc4)c3)c(Nc3ccccc3)c2C1=O` (racemic) [Example 14, N-{4-[3-anilino-5-methyl-4-oxo-7-(2,2,2-trifluoroethyl)-4,5,6,7-tetrahydro-1H-pyrrolo[3,2-c]pyridin-2-yl]pyridin-2-yl}-2-(4-fluorophenyl)acetamide], the IC50 in assay [1] was 3.1 nM; in assay [2], 5.1 nM.

`CN1CC(CC2CC2)c2[nH]c(-c3ccnc(NC(=O)Cc4ccc(F)cc4)c3)c(Nc3ccccc3)c2C1=O` (racemic) [Example 18, N-{4-[3-anilino-7-(cyclopropylmethyl)-5-methyl-4-oxo-4,5,6,7-tetrahydro-1H-pyrrolo[3,2-c]pyridin-2-yl]pyridin-2-yl}-2-(4-fluorophenyl)acetamide]: the IC50 in assay [1] is 6.6 nM; in assay [2] it was 12 nM.

In the case of `O=C1N[C@@H]2CCC[C@@H]2c2[nH]c(-c3ccnc(NC(=O)C(CC(F)F)c4ccc(F)cc4)c3)c(Nc3ccccc3)c21` (mixture of isomers) [Example 21, (2RS)—N-{4-[cis-3-anilino-4-oxo-1,4,5,5a,6,7,8,8a-octahydrocyclopenta[b]pyrrolo[2,3-d]pyridin-2-yl]pyridin-2-yl}-4,4-difluoro-2-(4-fluorophenyl)butanamide], the IC50 was 11 nM in assay [1] and 18 nM in assay [2].

With `Cn1ccc2[nH]c(-c3ccnc(NC(=O)C(CC(F)F)c4ccc(F)cc4)c3)c(Nc3ccccc3)c2c1=O` (racemic) [Example 28, N-[4-(3-anilino-5-methyl-4-oxo-4,5-dihydro-1H-pyrrolo[3,2-c]pyridin-2-yl)pyridin-2-yl]-4,4-difluoro-2-(4-fluorophenyl)butanamide], the IC50 was determined as 5.2 nM in assay [1] and 8.1 nM in assay [2].

For the molecule `Cc1cc2[nH]c(-c3ccnc(NC(=O)C(CC(F)F)c4ccc(F)cc4)c3)c(Nc3ccccc3F)c2c(=O)n1C` (racemic) [Example 31, 4,4-difluoro-N-{4-[3-(2-fluoroanilino)-5,6-dimethyl-4-oxo-4,5-dihydro-1H-pyrrolo[3,2-c]pyridin-2-yl]pyridin-2-yl}-2-(4-fluorophenyl)butanamide], the results for the IC50 in assay [1] and in assay [2] were 31 nM and 32 nM, respectively.

For the molecule `Cc1cn(C)c(=O)c2c(Nc3ccccc3)c(-c3ccnc(NC(=O)C(C)c4ccc(F)cc4)c3)[nH]c12` (racemic) [Example 39, N-[4-(3-anilino-5,7-dimethyl-4-oxo-4,5-dihydro-1H-pyrrolo[3,2-c]pyridin-2-yl)pyridin-2-yl]-2-(4-fluorophenyl)propanamide], the IC50 amounted to 51 nM in assay [1] and 56 nM in assay [2].

In the case of `CN1CC(CC(F)F)c2[nH]c(-c3ccnc(NC(=O)Cc4ccc(F)cc4)c3)c(Nc3ccccc3)c2C1=O` (racemic) [Example 42, N-{4-[3-anilino-7-(2,2-difluoroethyl)-5-methyl-4-oxo-4,5,6,7-tetrahydro-1H-pyrrolo[3,2-c]pyridin-2-yl]pyridin-2-yl}-2-(4-fluorophenyl)acetamide], the IC50 was 1.8 nM in assay [1] and 4.1 nM in assay [2].

`CN1CC(CC(F)(F)F)c2[nH]c(-c3ccnc(NC(=O)Cc4ccc(F)cc4)c3)c(Nc3cscn3)c2C1=O` (racemic) [Example 46, 2-(4-fluorophenyl)-N-{4-[(7RS)-5-methyl-4-oxo-3-(1,3-thiazol-4-ylamino)-7-(2,2,2-trifluoroethyl)-4,5,6,7-tetrahydro-1H-pyrrolo[3,2-c]pyridin-2-yl]pyridin-2-yl}acetamide]: the IC50 in assay [1] was 23 nM; in assay [2] it was 72 nM.

Consider `CN1CC(CC2CC2)c2[nH]c(-c3ccnc(NC(=O)Cc4ccc(F)cc4)c3)c(Nc3cscn3)c2C1=O` (racemic) [Example 49, N-{4-[(7RS)-7-(cyclopropylmethyl)-5-methyl-4-oxo-3-(1,3-thiazol-4-ylamino)-4,5,6,7-tetrahydro-1H-pyrrolo[3,2-c]pyridin-2-yl]pyridin-2-yl}-2-(4-fluorophenyl)acetamide], for which the values for the IC50 in assay [1] and in assay [2] were 5.9 nM and 14 nM, respectively.

The values above are taken from patent US20230365554A1, “SUBSTITUTED PYRROLO-PYRIDINONE DERIVATIVES AND THERAPEUTIC USES THEREOF” (The Broad Institute, Inc., priority 2020, published 2023).
